{
  "source": "the NIST ThermoML archive (doi:10.1016/j.jct.2015.12.031)",
  "key": {"[1]": {"conditions": "Liquid; for speed of sound: Sing-around technique in a fixed-path interferometer; for mass density: Vibrating tube method"}, "[2]": {"assay": "refractive index (Na D-line) (dimensionless)", "conditions": "Liquid, Standard Abbe refractometry"}, "[3]": {"assay": "mn = molality of the nth substance listed, in mol/kg", "conditions": "86.5 kPa, Liquid, m2 = 0; for speed of sound: Frequency=3 MHz, Sing-around technique in a fixed-path interferometer; for mass density: Vibrating tube method"}, "[4]": {"assay": "refractive index (Na D-line) (dimensionless); mn = molality of the nth substance listed, in mol/kg", "conditions": "86.5 kPa, Liquid, Standard Abbe refractometry, m2 = 0"}, "[5]": {"conditions": "288.15 K, 86.5 kPa, Frequency=3 MHz"}, "[6]": {"conditions": "293.15 K, 86.5 kPa, Frequency=3 MHz"}, "[7]": {"conditions": "298.15 K, 86.5 kPa, Frequency=3 MHz"}, "[8]": {"conditions": "303.15 K, 86.5 kPa, Frequency=3 MHz"}},
  "note": "Numbers after ± are expanded uncertainties.",
  "data": [
    {"smiles": "CCCCCCn1cc[n+](C)c1.[Br-]", "note": "[3-hexyl-1-methyl-1H-imidazolium bromide]", "values": [
      {"measurement": "speed of sound", "setting": "[1]; [5]", "value": "1639.4 ± 3.2", "unit": "m/s"},
      {"measurement": "mass density", "setting": "[1]; 288.15 K, 86.5 kPa", "value": "1231.02 ± 7.5", "unit": "kg/m3"},
      {"measurement": "speed of sound", "setting": "[1]; [6]", "value": "1610.4 ± 3.2", "unit": "m/s"},
      {"measurement": "mass density", "setting": "[1]; 293.15 K, 86.5 kPa", "value": "1227.43 ± 7.5", "unit": "kg/m3"},
      {"measurement": "speed of sound", "setting": "[1]; [7]", "value": "1587.1 ± 3.2", "unit": "m/s"},
      {"measurement": "mass density", "setting": "[1]; 298.15 K, 86.5 kPa", "value": "1223.74 ± 7.5", "unit": "kg/m3"},
      {"measurement": "speed of sound", "setting": "[1]; [8]", "value": "1568.7 ± 3.2", "unit": "m/s"},
      {"measurement": "mass density", "setting": "[1]; 303.15 K, 86.5 kPa", "value": "1220.35 ± 7.5", "unit": "kg/m3"},
      {"measurement": "refractive index", "setting": "[2]; 288.15 K, 86.5 kPa", "value": "1.5282 ± 0.0012"},
      {"measurement": "refractive index", "setting": "[2]; 293.15 K, 86.5 kPa", "value": "1.5268 ± 0.0012"},
      {"measurement": "refractive index", "setting": "[2]; 298.15 K, 86.5 kPa", "value": "1.5254 ± 0.0012"},
      {"measurement": "refractive index", "setting": "[2]; 303.15 K, 86.5 kPa", "value": "1.5237 ± 0.0012"}
    ]},
    {"smiles": "CCCCCCCC", "note": "[octane]", "values": [
      {"measurement": "speed of sound", "setting": "[1]; [5]", "value": "1214.5 ± 5.1", "unit": "m/s"},
      {"measurement": "mass density", "setting": "[1]; 288.15 K, 86.5 kPa", "value": "706.994 ± 7.5", "unit": "kg/m3"},
      {"measurement": "speed of sound", "setting": "[1]; [6]", "value": "1193.3 ± 5.1", "unit": "m/s"},
      {"measurement": "mass density", "setting": "[1]; 293.15 K, 86.5 kPa", "value": "702.995 ± 7.5", "unit": "kg/m3"},
      {"measurement": "speed of sound", "setting": "[1]; [7]", "value": "1172.4 ± 5.1", "unit": "m/s"},
      {"measurement": "mass density", "setting": "[1]; 298.15 K, 86.5 kPa", "value": "698.923 ± 7.4", "unit": "kg/m3"},
      {"measurement": "speed of sound", "setting": "[1]; [8]", "value": "1151.5 ± 5.1", "unit": "m/s"},
      {"measurement": "mass density", "setting": "[1]; 303.15 K, 86.5 kPa", "value": "694.878 ± 7.4", "unit": "kg/m3"},
      {"measurement": "refractive index", "setting": "[2]; 288.15 K, 86.5 kPa", "value": "1.3998 ± 0.0015"},
      {"measurement": "refractive index", "setting": "[2]; 293.15 K, 86.5 kPa", "value": "1.3973 ± 0.0015"},
      {"measurement": "refractive index", "setting": "[2]; 298.15 K, 86.5 kPa", "value": "1.3949 ± 0.0015"},
      {"measurement": "refractive index", "setting": "[2]; 303.15 K, 86.5 kPa", "value": "1.3924 ± 0.0015"}
    ]},
    {"smiles": "CCCCCCCC", "note": "[octane] + c1ccsc1", "values": [
      {"measurement": "speed of sound", "setting": "[3]; 288.15 K", "value": "1214.5 ± 5.1", "unit": "m/s"},
      {"measurement": "mass density", "setting": "[3]; 288.15 K", "value": "706.994 ± 7.5", "unit": "kg/m3"},
      {"measurement": "speed of sound", "setting": "[3]; 293.15 K", "value": "1193.3 ± 5.1", "unit": "m/s"},
      {"measurement": "mass density", "setting": "[3]; 293.15 K", "value": "702.995 ± 7.5", "unit": "kg/m3"},
      {"measurement": "speed of sound", "setting": "[3]; 298.15 K", "value": "1172.4 ± 5.1", "unit": "m/s"},
      {"measurement": "mass density", "setting": "[3]; 298.15 K", "value": "698.923 ± 7.4", "unit": "kg/m3"},
      {"measurement": "speed of sound", "setting": "[3]; 303.15 K", "value": "1151.5 ± 5.1", "unit": "m/s"},
      {"measurement": "mass density", "setting": "[3]; 303.15 K", "value": "694.878 ± 7.4", "unit": "kg/m3"},
      {"measurement": "refractive index", "setting": "[4]; 288.15 K", "value": "1.3998 ± 0.0015"},
      {"measurement": "refractive index", "setting": "[4]; 293.15 K", "value": "1.3973 ± 0.0015"},
      {"measurement": "refractive index", "setting": "[4]; 298.15 K", "value": "1.3949 ± 0.0015"},
      {"measurement": "refractive index", "setting": "[4]; 303.15 K", "value": "1.3924 ± 0.0015"}
    ]},
    {"smiles": "CCCCCCCCn1cc[n+](C)c1.[Br-]", "note": "[1-methyl-3-octylimidazolium bromide]", "values": [
      {"measurement": "speed of sound", "setting": "[1]; [5]", "value": "1605.2 ± 3.2", "unit": "m/s"},
      {"measurement": "mass density", "setting": "[1]; 288.15 K, 86.5 kPa", "value": "1179.37 ± 7.4", "unit": "kg/m3"},
      {"measurement": "speed of sound", "setting": "[1]; [6]", "value": "1581.9 ± 3.2", "unit": "m/s"},
      {"measurement": "mass density", "setting": "[1]; 293.15 K, 86.5 kPa", "value": "1176.17 ± 7.4", "unit": "kg/m3"},
      {"measurement": "speed of sound", "setting": "[1]; [7]", "value": "1561.9 ± 3.2", "unit": "m/s"},
      {"measurement": "mass density", "setting": "[1]; 298.15 K, 86.5 kPa", "value": "1172.98 ± 7.4", "unit": "kg/m3"},
      {"measurement": "speed of sound", "setting": "[1]; [8]", "value": "1542.8 ± 3.2", "unit": "m/s"},
      {"measurement": "mass density", "setting": "[1]; 303.15 K, 86.5 kPa", "value": "1169.86 ± 7.4", "unit": "kg/m3"},
      {"measurement": "refractive index", "setting": "[2]; 288.15 K, 86.5 kPa", "value": "1.525 ± 0.0012"},
      {"measurement": "refractive index", "setting": "[2]; 293.15 K, 86.5 kPa", "value": "1.5236 ± 0.0012"},
      {"measurement": "refractive index", "setting": "[2]; 298.15 K, 86.5 kPa", "value": "1.5221 ± 0.0012"},
      {"measurement": "refractive index", "setting": "[2]; 303.15 K, 86.5 kPa", "value": "1.5206 ± 0.0012"}
    ]},
    {"smiles": "c1ccsc1", "note": "[thiophene]", "values": [
      {"measurement": "speed of sound", "setting": "[1]; 298.15 K, 101.33 kPa", "value": "1279 ± 1.3", "unit": "m/s"},
      {"measurement": "mass density", "setting": "[1]; 298.15 K, 101.33 kPa", "value": "1058.56 ± 7", "unit": "kg/m3"},
      {"measurement": "speed of sound", "setting": "[1]; 303.15 K, 101.33 kPa", "value": "1258.7 ± 1.3", "unit": "m/s"},
      {"measurement": "refractive index", "setting": "[2]; 298.15 K, 101.33 kPa", "value": "1.5252 ± 0.0011"}
    ]}
  ]
}
